Consider 4 compounds from patent US8575148B2, “Spiro azepane-oxazolidinones as Kv1.3 potassium channel blockers” (Abbott Healthcare Products B.V., priority 2008, dated 2013).

The target of the test is T1, voltage gated potassium channel Kv1.3 (Homo sapiens, UniProt P22001).
T1 construct: expressed in transfected cells; host or cells: CHO cells
In words: In vitro inhibition of Kv1.3 potassium channels (Rb efflux, atomic absorption). Particulars: CHO cells over-expressing Kv1.3, Rb efflux after depolarization, triplicate; for inhibition at 10 µM: 10^−5 M, read-out: percentage Kv1.3 inhibition at 10^−5M. It is filed as cell-based. The text has this:
In vitro inhibition of Kv1.3 potassium channels: the assay was used to determine the permeability of potassium ion channels expressed in the cell membrane. […] Adherent CHO cells over-expressing the voltage gated potassium channel Kv1.3 were loaded with Rb. Depolarization of the cells leads to opening of the potassium channels and to efflux of Rb through the potassium channels. Thus, the Rb concentration in the supernatant is proportional to the potassium ion channel permeability. To identify potassium channel blockers, cells were incubated with compounds before depolarization. A reduction of Rb in the supernatant indicated the presence of a potassium ion channel blocker. The Rb concentration in the supernatant was measured using an Atomic Absorption Spectrometer.
CHO cells expressing either Kv1.3, Kv1.5 or hERG ion channels were cultured at 37° C./5% CO2. Prior to the experiment cells were seeded in 96 well plates (Corning, N.Y., USA) and cultured for 24 h. Medium was discarded and replaced by 100 μl Rb buffer (10 mM HEPES pH 7.4, 5 mM Glucose, 5 mM RbCl, 140 mM NaCl, 2 mM CaCl2, 1 mM MgSO4) per well. After 4 h incubation the cells were washed three times with low potassium buffer (10 mM HEPES pH 7.4, 5 mM Glucose, 5 mM KCl, 140 mM NaCl, 2 mM CaCl2, 1 mM MgSO4). Compounds were dissolved in 75 μl low potassium buffer and added to the cells. After 12 minutes cells were depolarized by adding […] high potassium buffer (10 mM HEPES pH 7.4, 5 mM Glucose, 145 mM KCl, 2 mM CaCl2, 1 mM MgSO4), followed by additional 15 minutes of incubation. The supernatant was transferred in a 96 well plate and the Rb concentration was measured using a ZEEnit Atomic Absorption Spectrometer (Analytik Jena, Germany). By comparing control vs. depolarized w/o compound, the ion channel inhibition was determined. Measurements were done in triplicate.

T1 sequence (P22001 whole entry): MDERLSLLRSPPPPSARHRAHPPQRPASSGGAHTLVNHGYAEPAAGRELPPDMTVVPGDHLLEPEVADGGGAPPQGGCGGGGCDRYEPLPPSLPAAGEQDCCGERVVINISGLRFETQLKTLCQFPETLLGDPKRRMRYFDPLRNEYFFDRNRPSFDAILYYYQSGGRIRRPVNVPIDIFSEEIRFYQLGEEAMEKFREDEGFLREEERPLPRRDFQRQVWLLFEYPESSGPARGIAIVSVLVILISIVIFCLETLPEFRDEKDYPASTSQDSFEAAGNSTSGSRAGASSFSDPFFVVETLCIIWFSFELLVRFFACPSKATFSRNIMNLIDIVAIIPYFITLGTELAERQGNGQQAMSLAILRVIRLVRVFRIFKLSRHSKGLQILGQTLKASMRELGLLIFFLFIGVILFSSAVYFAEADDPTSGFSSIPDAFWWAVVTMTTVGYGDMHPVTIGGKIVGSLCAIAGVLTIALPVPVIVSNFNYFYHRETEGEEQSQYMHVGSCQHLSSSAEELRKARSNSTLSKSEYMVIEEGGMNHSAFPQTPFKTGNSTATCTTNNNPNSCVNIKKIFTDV

Turning to `C[C@H](c1ccccc1)N1CC2(CCCN(C(=O)c3cc(C(F)(F)F)cc(C(F)(F)F)c3)CC2)OC1=O` (stereo partly drawn) [Compound 31, 8-(3,5-trifluoromethyl-benzoyl)-3-[(R)-1-phenyl-ethyl]-1-oxa-3,8-diazaspiro[4.6]undecan-2-one], the “percentage Kv1.3 inhibition at 10^−5M” value came to 64%.

As usually defined, the inhibition is how much of the control response was suppressed. Consider `C[C@H](c1ccccc1)N1C[C@@]2(CCCN(C(=O)c3cc(C(F)(F)F)cc(C(F)(F)F)c3)CC2)OC1=O` [Compound 32, (5S)-8-[3,5-bis(trifluoromethyl)benzoyl]-3-[(1R)-1-phenylethyl]-1-oxa-3,8-diazaspiro[4.6]-undecan-2-one], for which the inhibition at 10 µM was 99%.

In the case of `C[C@@H](c1ccccc1)N1C[C@@]2(CCCN(C(=O)c3cc(C(F)(F)F)cc(C(F)(F)F)c3)CC2)OC1=O` [Compound 29, (5S)-8-[3,5-bis(trifluoromethyl)benzoyl]-3-[(1S)-1-phenylethyl]-1-oxa-3,8-diazaspiro[4.6]-undecan-2-one], the inhibition at 10 µM worked out at 100%.

`C[C@@H](c1ccccc1)N1C[C@]2(CCCN(C(=O)c3cc(C(F)(F)F)cc(C(F)(F)F)c3)CC2)OC1=O` [Compound 30, (5R)-8-[3,5-bis(trifluoromethyl)benzoyl]-3-[(1S)-1-phenylethyl]-1-oxa-3,8-diazaspiro[4.6]-undecan-2-one]: the inhibition at 10 µM was 75%.
